Laboratory results from PMC5706701, “Development of a homogenous high-throughput assay for inositol hexakisphosphate kinase 1 activity” (PLoS ONE, 2017).
Where a name gives a salt, the structure may show the parent alone. Read-outs that look alike come from different tables or passages of the source. Values belong to the compound of their own block, whether it stands above or below them. Where a SMILES comes first, the peptide text is derived from it. The star is where a group is joined. Cbz = O=C(OCc1ccccc1)*

Biological target: T1, Human IP6K1 (Homo sapiens, UniProt Q92551)
T1 construct: GST (N, cleaved yes); made in house; host or cells: C43 E. coli, pGEX-6P-2
T1 sequence (Q92551 whole entry): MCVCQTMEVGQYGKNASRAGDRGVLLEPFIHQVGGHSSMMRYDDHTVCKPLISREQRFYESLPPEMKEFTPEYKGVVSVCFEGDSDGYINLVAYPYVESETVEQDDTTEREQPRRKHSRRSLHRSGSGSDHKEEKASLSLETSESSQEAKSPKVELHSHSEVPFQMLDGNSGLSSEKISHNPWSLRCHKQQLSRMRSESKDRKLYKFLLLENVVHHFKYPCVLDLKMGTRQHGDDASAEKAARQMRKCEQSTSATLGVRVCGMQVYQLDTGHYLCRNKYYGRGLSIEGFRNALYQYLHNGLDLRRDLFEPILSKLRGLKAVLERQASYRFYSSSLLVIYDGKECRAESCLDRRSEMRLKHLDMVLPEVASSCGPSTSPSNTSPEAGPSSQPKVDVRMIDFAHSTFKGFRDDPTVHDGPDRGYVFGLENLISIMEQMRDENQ
Test: IP6K1 high-throughput screen of the Sigma LOPAC (ADP-Glo Max, single point);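 also: final compound concentration 10µM in 5% DMSO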
Assay type: biochemical

[1] = LOPAC single-point screen, ADP-Glo Max luminescence raw signal per well
[2] = LOPAC single-point screen, Z-score relative to plate average and StDev
[3] = LOPAC single-point screen, ADP-Glo Max raw signal per well
[4] = LOPAC single-point screen, Z-score against plate average and StDev
[5] = Sigma LOPAC single-point screen, ADP-Glo Max raw signal per well
[6] = Sigma LOPAC single-point screen, Z-score from plate average and StDev
[7] = LOPAC single-point screen, Z-score from raw signal with plate average and StDev
[8] = LOPAC single-point screen, Z-score from plate average and StDev

SMILES: NC[C@H](O)c1ccc(O)c(O)c1.O=C(O)C(O)C(O)C(=O)O [L(-)-Norepinephrine bitartrate]
Raw Signal [1]: 29897 | Z-score [2]: -4.934

Raw Signal [3]: 59199 | Z-score [4]: 0.2265
SMILES: N[C@@H](CCCC(=O)O)C(=O)O [L-2-aminoadipic acid]

Raw Signal [1]: 43363 | Z-score [2]: -2.397
SMILES: N[C@@H](Cc1ccc(O)c(O)c1)C(=O)O [L-3,4-Dihydroxyphenylalanine]

SMILES: CCCCOC(=O)NS(=O)(=O)c1sc(CC(C)C)cc1-c1ccc(Cn2c(CC)nc3c(C)cc(C)nc32)cc1 [L-162,313]
Raw Signal [3]: 54291 | Z-score [4]: -0.01722

SMILES: CCCc1c(OCCCOc2ccc(OCC(=O)O)cc2)ccc(C(C)=O)c1O [L-165,041]
Raw Signal [5]: 57961 | Z-score [6]: 0.5674

SMILES: Cc1ccccc1N1CCN(S(=O)(=O)CC23CCC(CC2NC(=O)C(N)CCS(C)(=O)=O)C3(C)C)CC1 [L-368,899]
Raw Signal [1]: 50329 | Z-score [2]: -0.6829

SMILES: Cc1c(CC(C)(C)C(=O)O)n(Cc2ccc(Cl)cc2)c2ccc(F)cc12 [L-655,240]
Raw Signal [1]: 51424 | Z-score [2]: -0.499

SMILES: CCOC(=O)c1ncn2c1[C@@H]1CCCN1C(=O)c1cc(OC)ccc1-2 [L-655,708]
Raw Signal [3]: 54093 | Z-score [4]: -0.05049

SMILES: Cl.c1ccc(CN2CCC3(CCCc4ccccc43)CC2)cc1 [L-687,384 hydrochloride]
Raw Signal [5]: 58533 | Z-score [6]: 0.6955

SMILES: O=c1[nH]c2cc(Cl)ccc2c(O)c1-c1cccc(Oc2ccccc2)c1 [L-701,324]
Raw Signal [1]: 49431 | Z-score [2]: -0.8338

SMILES: Ic1ccccc1CNC1C2CCN(CC2)C1C(c1ccccc1)c1ccccc1.O=C(O)C(=O)O [L-703,606 oxalate]
Raw Signal [3]: 52840 | Z-score [7]: -0.261

SMILES: CC(=O)N[C@@H](Cc1c[nH]c2ccccc12)C(=O)OCc1cc(C(F)(F)F)cc(C(F)(F)F)c1 [L-732,138]
Raw Signal [1]: 53722 | Z-score [2]: -0.7382

Raw Signal [3]: 52038 | Z-score [7]: -0.3958
SMILES: Cl.FC(F)(F)c1cc(CO[C@H]2CCCN[C@H]2c2ccccc2)cc(C(F)(F)F)c1 [L-733,060 hydrochloride]

SMILES: OC1(c2ccc(Cl)cc2)CCN(Cc2c[nH]c3ccccc23)CC1 [L-741,626]
Raw Signal [1]: 51249 | Z-score [2]: -0.5284

SMILES: Cl.Clc1ccc(N2CCN(Cc3c[nH]c4ncccc34)CC2)cc1 [L-745,870 hydrochloride]
Raw Signal [3]: 55866 | Z-score [4]: 0.2474

SMILES: Cl.Cl.Cl.Ic1ccc(N2CCN(Cc3c[nH]c4ncccc34)CC2)cc1 [L-750,667 trihydrochloride]
Raw Signal [5]: 61468 | Z-score [6]: 1.1887

SMILES: COc1cc2nc(N3CCN(C(=O)OCc4ccccc4)[C@H](C(=O)NC(C)(C)C)C3)nc(N)c2cc1OC [L-765,314]
Z-score [7]: -0.2706

SMILES: N=C(N)NCCC[C@H](N)C(=O)O [L-Arginine]
Raw Signal [3]: 58902 | Z-score [4]: 0.1742

Raw Signal [3]: 58223 | Z-score [4]: 0.05458
SMILES: N[C@@H](CC(=O)O)C(=O)O [L-Aspartic acid]

Raw Signal [5]: 61284 | Z-score [6]: 0.5937
SMILES: CCCCS(=N)(=O)CC[C@H](N)C(=O)O (stereo partly drawn) [L-Buthionine-sulfoximine]

SMILES: NC(N)=NOCC[C@H](N)C(=O)O.O=S(=O)(O)O [L-Canavanine sulfate]
Raw Signal [5]: 61689 | Z-score [6]: 0.665

Raw Signal [3]: 56773 | Z-score [7]: -0.2008
SMILES: N[C@H]1CON=C1O [L-Cycloserine]

Raw Signal [3]: 57943 | Z-score [4]: 0.005266
SMILES: N[C@@H](CS(=O)O)C(=O)O [L-Cysteinesulfinic Acid]

Raw Signal [3]: 55889 | Z-score [4]: 0.1466
SMILES: Cl.N[C@@H](CCC(=O)O)C(=O)O [L-Glutamic acid hydrochloride]

Raw Signal [5]: 59775 | Z-score [6]: 0.9042
SMILES: O=C(O)CCC(C(=O)O)N1C(=O)c2ccccc2C1=O [L-Glutamic acid, N-phthaloyl-]

Raw Signal [5]: 57892 | Z-score [6]: 0.5534
SMILES: NC(=O)CC[C@H](N)C(=O)O [L-Glutamine]

Raw Signal [5]: 61451 | Z-score [6]: 1.276
SMILES: Cl.N[C@@H](Cc1cnc[nH]1)C(=O)O [L-Histidine hydrochloride]

SMILES: CN1[C@@H]2CC[C@H]1C[C@@H](OC(=O)[C@H](CO)c1ccccc1)C2 [L-Hyoscyamine]
Raw Signal [1]: 63094 | Z-score [8]: 1.61

SMILES: CC(C)C[C@H](N)CSSC[C@@H](N)CC(C)C.Cl.Cl [L-Leucinethiol, oxidized dihydrochloride]
Raw Signal [3]: 55535 | Z-score [4]: 0.1918

Raw Signal [3]: 52153 | Z-score [7]: -0.3765
SMILES: CC(=N)NCCCC[C@H](N)C(=O)O.Cl [L-N6-(1-Iminoethyl)lysine hydrochloride]

Raw Signal [5]: 60593 | Z-score [6]: 0.8877
SMILES: N[C@@H](Cc1c[nH]c2ccccc12)C(=O)O [L-Tryptophan]

Raw Signal [3]: 58984 | Z-score [4]: 0.1886
SMILES: C=CC[C@H](N)C(=O)O [L-allylglycine]

SMILES: C[C@](N)(Cc1ccc(O)c(O)c1)C(=O)O [L-alpha-Methyl DOPA]
Raw Signal [1]: 24071 | Z-score [2]: -5.095

SMILES: C[C@](N)(Cc1ccc(O)cc1)C(=O)O [L-alpha-Methyl-p-tyrosine]
Raw Signal [3]: 53929 | Z-score [4]: -0.07805

SMILES: O=C(O)[C@@H]1CCN1 [L-azetidine-2-carboxylic acid]
Raw Signal [1]: 54831 | Z-score [2]: -0.5428

SMILES: CN1CCc2ccccc2Cc2[nH]c3ccccc3c2CC1 [LE 300]
Raw Signal: 53844 | Z-score: -0.09233

SMILES: C/C(O)=C(\C#N)C(=O)Nc1cc(Br)ccc1Br [LFM-A13]
Raw Signal [5]: 58610 | Z-score [6]: 0.7085

SMILES: CC(O)C(C)OC(=O)[C@@H]1C[C@@H]2c3cccc4c3c(cn4C(C)C)C[C@H]2N(C)C1.O=C(O)/C=C\C(=O)O (some centres unmarked) [LY-53,857 maleate]
Raw Signal [5]: 58270 | Z-score [6]: 0.6514

SMILES: CN1C2CCC1CC(NC(=O)c1nn(C)c3ccccc13)C2.O=C(O)/C=C\C(=O)O (centres unmarked) [LY-278,584 maleate]
Raw Signal [1]: 49124 | Z-score [2]: -0.8854

Raw Signal [1]: 50825 | Z-score [2]: -0.5996
SMILES: Cl.O=c1cc(N2CCOCC2)oc2c(-c3ccccc3)cccc12 [LY-294,002 hydrochloride]

Raw Signal [3]: 53329 | Z-score [7]: -0.1789
SMILES: CC(CCc1ccccc1)NCC(O)c1ccc(O)c(C(N)=O)c1 (centres unmarked) [Labetalol hydrochloride]

Raw Signal [3]: 53800 | Z-score [7]: -0.09973
SMILES: Nc1nnc(-c2cccc(Cl)c2Cl)c(N)n1 [Lamotrigine]

Raw Signal [3]: 53701 | Z-score [7]: -0.1164
SMILES: Cc1c(OCC(F)(F)F)ccnc1C[S+]([O-])c1nc2ccccc2[nH]1 (centres unmarked) [Lansoprazole]

Raw Signal [1]: 65933 | Z-score [8]: 1.939
SMILES: Cc1oncc1C(=O)Nc1ccc(C(F)(F)F)cc1 [Leflunomide]

Raw Signal [3]: 52542 | Z-score [7]: -0.3111
SMILES: C=CCN1CC[C@]23CCCC[C@H]2[C@H]1Cc1ccc(O)cc13 [Levallorphan tartrate]

SMILES: CC[N+](C)(CC)CC(=O)Nc1c(C)cccc1C.[Cl-] [Lidocaine N-methyl hydrochloride]
Raw Signal [1]: 51540 | Z-score [2]: -0.4795

Raw Signal [3]: 55241 | Z-score [4]: 0.1424
SMILES: O=C1N(c2ccccc2)c2ccccc2C1(Cc1ccncc1)Cc1ccncc1 [Linopirdine]

SMILES: [Cl-].[Li+] [Lithium Chloride]
Raw Signal [5]: 59222 | Z-score [6]: 0.8235

Raw Signal [1]: 49930 | Z-score [2]: -0.75
SMILES: CCn1cc(C(=O)O)c(=O)c2cc(F)c(N3CCNC(C)C3)c(F)c21 (centres unmarked) [Lomefloxacin hydrochloride]

Raw Signal [3]: 56276 | Z-score [4]: 0.3163
SMILES: O=C(O)c1nn(Cc2ccc(Cl)cc2Cl)c2ccccc12 [Lonidamine]

SMILES: CN(C)C(=O)C(CCN1CCC(O)(c2ccc(Cl)cc2)CC1)(c1ccccc1)c1ccccc1 [Loperamide hydrochloride]
Raw Signal [1]: 51056 | Z-score [2]: -0.5608

Raw Signal [1]: 49648 | Z-score [2]: -0.7974
SMILES: CCOC(=O)N1CCC(=C2c3ccc(Cl)cc3CCc3cccnc32)CC1 [Loratadine]

Z-score [4]: 0.04041
SMILES: CCCCCN(CCCCC)C(=O)C(CCC(=O)O)NC(=O)c1ccc(Cl)c(Cl)c1 (centres unmarked) [Lorglumide sodium]

Raw Signal [3]: 54983 | Z-score [4]: 0.09905
SMILES: CN1CCN(C2=Nc3ccccc3Oc3ccc(Cl)cc32)CC1 [Loxapine succinate]

Raw Signal [1]: 50800 | Z-score [2]: -0.6038
SMILES: O=c1cc(-c2ccc(O)c(O)c2)oc2cc(O)cc(O)c12 [Luteolin]

SMILES: O=C(O)/C(=C/c1c(C(=O)O)[nH]c2cc(Cl)cc(Cl)c12)c1ccccc1 [MDL 105,519]
Z-score: 0.03839

Raw Signal [1]: 65838 | Z-score [8]: 1.923
SMILES: CC(C)[C@H](NC(=O)OCc1ccccc1)C(=O)N[C@H](C=O)Cc1ccccc1 [MDL 28170] (Cbz-Val-Phe-aldehyde)

Raw Signal [5]: 57360 | Z-score [6]: 0.4984
SMILES: CC[N+](CC)(CC)CCOc1ccc(/C=C/c2ccccc2)cc1 [MG 624]

Raw Signal [5]: 58694 | Z-score [6]: 0.7163
SMILES: C1CNCCN1.COc1cc(C(O)CO)ccc1O.COc1cc(C(O)CO)ccc1O (centres unmarked) [MHPG piperazine]

SMILES: COc1cc(C(O)CO)ccc1OS(=O)(=O)[O-].[K+] (centres unmarked) [MHPG sulfate potassium]
Raw Signal [3]: 56093 | Z-score [4]: 0.1881

SMILES: CCCCCCCCCCCCCCCCOCC(COCC(F)(F)F)OP(=O)(O)OC (centres unmarked) [MJ33]
Raw Signal [5]: 57341 | Z-score [6]: 0.4953

SMILES: CC(C)c1ccc2c(c1)c(SC(C)(C)C)c(CC(C)(C)C(=O)O)n2Cc1ccc(Cl)cc1 [MK-886]
Raw Signal [3]: 53257 | Z-score [7]: -0.191

SMILES: CN1CC[C@]2(CCN3CCc4c(oc5ccccc45)[C@@H]3C2)N(C)C1=O.Cl [MK-912]
Raw Signal [1]: 51307 | Z-score [2]: -0.5186

SMILES: O=S(=O)(c1cccc2c(I)cccc12)N1CCCNCC1 [ML-7]
Raw Signal [1]: 65221 | Z-score [8]: 1.8193
